In ChEMBL document CHEMBL1135425, “Antitumor agents. 213. Modeling of epipodophyllotoxin derivatives using variable selection k nearest neighbor QSAR method” (J Med Chem, 2002):
Several values for one entry are separate records, joined by “and”; a condition that tells them apart may be missing. Identical values can stand only once.

Biological target: DNA topoisomerase II (Homo sapiens) (UniProt P11388+Q02880)
Experiment: Percentage of intracellular covalent DNA-topoisomerase II complexes formed
Assay type: cell-based

| Complex formation | Compound |
| --- | --- |
| 23% | COc1cc([C@@H]2c3cc(O)c(O)cc3[C@@H](Nc3ccc([N+](=O)[O-])cc3)[C@H]3COC(=O)[C@H]23)cc(OC)c1OC |
| 64% | COc1cc([C@@H]2c3cc4c(cc3[C@@H](Nc3ccc(I)cc3)[C@H]3COC(=O)[C@H]23)OCO4)cc(OC)c1O |
| 127% | CCOC(=O)c1ccc(NC2c3cc(OC)c(OC)cc3[C@@H](c3cc(OC)c(O)c(OC)c3)[C@H]3C(=O)OC[C@H]23)cc1 (stereo partly specified) |
| 8% | COc1cc2c(cc1OC)[C@@H](c1cc(OC)c(OC)c(OC)c1)[C@H]1C(=O)OC[C@@H]1C2Nc1ccc(F)cc1 (stereo partly specified) |
| 211% | COc1cc([C@@H]2c3cc4c(cc3[C@@H](Nc3ccc(O)cc3)[C@H]3COC(=O)[C@H]23)OCO4)cc(OC)c1O |
| 130% | COc1cc([C@@H]2c3cc4c(cc3[C@@H](NCc3cccc([N+](=O)[O-])c3)[C@H]3COC(=O)[C@H]23)OCO4)cc(OC)c1O |
| 47% | COc1cc([C@@H]2c3cc4c(cc3[C@@H](Nc3cc(OC)c(OC)c(OC)c3)[C@H]3COC(=O)[C@H]23)OCO4)cc(OC)c1O |
| 128% | COc1cc([C@@H]2c3cc4c(cc3[C@@H](NC(=O)c3ccccc3F)[C@H]3COC(=O)[C@H]23)OCO4)cc(OC)c1O |
| 57% | COc1cc([C@@H]2c3cc4c(cc3[C@@H](Oc3ccc(F)cc3)[C@H]3COC(=O)[C@H]23)OCO4)cc(OC)c1O |
| 149% | COc1cc([C@@H]2c3cc4c(cc3[C@@H](NC(=O)c3cccc(N)c3)[C@H]3COC(=O)[C@H]23)OCO4)cc(OC)c1O |
| 191% | COc1cc([C@@H]2c3cc4c(cc3[C@@H](NCc3cccc(N)c3)[C@H]3COC(=O)[C@H]23)OCO4)cc(OC)c1O |
| 162% | COc1cc([C@@H]2c3cc4c(cc3[C@@H](N[C@H](C)CO)[C@H]3COC(=O)[C@H]23)OCO4)cc(OC)c1O |
| 69% | COc1ccc(NC2c3cc4c(cc3[C@@H](c3cc(O)c(O)c(OC)c3)[C@H]3C(=O)OC[C@H]23)OCO4)cc1OC (stereo partly specified) |
| 190% and 183% | COc1cc([C@@H]2c3cc4c(cc3[C@@H](NCCN3CCCCC3)[C@H]3COC(=O)[C@H]23)OCO4)cc(OC)c1O |
| 6.1% | COc1cc([C@@H]2c3cc4c(cc3[C@@H](O[C@@H]3O[C@@H]5CO[C@@H](C)O[C@H]5[C@H](O)[C@H]3O)[C@H]3COC(=O)[C@H]23)OCO4)c(Cl)c(OC)c1O |
| 99% | COc1cc([C@@H]2c3cc4c(cc3[C@@H](NCc3ccc(C(F)(F)F)cc3)[C@H]3COC(=O)[C@H]23)OCO4)cc(OC)c1O |
| 83% | COC(=O)c1cc(N[C@@H]2c3cc4c(cc3[C@@H](c3cc(OC)c(O)c(OC)c3)[C@H]3C(=O)OC[C@@H]32)OCO4)ccc1O |
| 11% | COc1cc([C@@H]2c3cc(O)c(O)cc3C(Nc3ccc(F)cc3)[C@H]3COC(=O)[C@H]23)cc(OC)c1OC (stereo partly specified) |
| 77% | COc1cc([C@@H]2c3cc4c(cc3C(Nc3ccc(Cl)cc3)[C@H]3COC(=O)[C@H]23)OCO4)cc(O)c1O (stereo partly specified) |
| 118% | COc1cc([C@@H]2c3cc4c(cc3[C@@H](NC(=O)Nc3ccc(F)cc3)[C@H]3COC(=O)[C@H]23)OCO4)cc(OC)c1O |
| 249% | COC(=O)c1cccc(N[C@@H]2c3cc4c(cc3[C@@H](c3cc(OC)c(O)c(OC)c3)[C@H]3C(=O)OC[C@@H]32)OCO4)c1 |
| 41% | COC1=CC([C@@H]2c3cc4c(cc3C(NC(=O)N(C)N=O)[C@H]3COC(=O)[C@H]23)OCO4)=CC(=O)C1=O (stereo partly specified) |
| 96% | COc1ccc(NC2c3cc4c(cc3[C@@H](c3cc(O)c(O)c(OC)c3)[C@H]3C(=O)OC[C@H]23)OCO4)cc1 (stereo partly specified) |

| Complex formation | Compound |
| --- | --- |
| 179% and 186% | COc1cc([C@@H]2c3cc4c(cc3[C@@H](NCCCN(C)C)[C@H]3COC(=O)[C@H]23)OCO4)cc(OC)c1O |
| 290% | COc1cc([C@@H]2c3cc4c(cc3[C@@H](Nc3cccc(O)c3)[C@H]3COC(=O)[C@H]23)OCO4)cc(OC)c1O |
| 140% | COc1cc([C@@H]2c3cc4c(cc3[C@@H](Nc3ccc(N5CCOCC5)cc3)[C@H]3COC(=O)[C@H]23)OCO4)cc(OC)c1O |
| 33% | COc1cc([C@@H]2c3cc(O)c(O)cc3C(Nc3ccc(C#N)cc3)[C@H]3COC(=O)[C@H]23)cc(OC)c1OC (stereo partly specified) |
| 111% | COCCN[C@@H]1c2cc3c(cc2[C@@H](c2cc(OC)c(O)c(OC)c2)[C@H]2C(=O)OC[C@@H]21)OCO3 |
| 116% | COc1cc([C@@H]2c3cc4c(cc3[C@@H](NC(=O)c3cccc(F)c3)[C@H]3COC(=O)[C@H]23)OCO4)cc(OC)c1O |
| 84.1% | C=CCN[C@@H]1c2cc3c(cc2[C@@H](c2cc(OC)c(O)c(OC)c2)[C@H]2C(=O)OC[C@@H]21)OCO3 |
| 50% | COC(=O)c1cc(N[C@@H]2c3cc4c(cc3[C@@H](c3cc(OC)c(O)c(OC)c3)[C@H]3C(=O)OC[C@@H]32)OCO4)cc(C(=O)OC)c1 |
| 75% | COc1cc2c(cc1OC)[C@@H](c1cc(OC)c(O)c(OC)c1)[C@H]1C(=O)OC[C@@H]1C2Nc1ccc([N+](=O)[O-])cc1 (stereo partly specified) |
| 15% | COc1cc([C@@H]2c3cc4c(cc3[C@@H](Nc3cc([N+](=O)[O-])ccc3O)[C@H]3COC(=O)[C@H]23)OCO4)cc(OC)c1O |
| 18% | COc1cc([C@@H]2c3cc(O)c(O)cc3[C@@H](Nc3cccc(O)c3)[C@H]3COC(=O)[C@H]23)cc(OC)c1O |
| 160% | COc1cc([C@@H]2c3cc4c(cc3[C@@H](NC(=O)c3ccc([N+](=O)[O-])cc3)[C@H]3COC(=O)[C@H]23)OCO4)cc(OC)c1O |
| 207% | CCOC(=O)c1ccc(N[C@@H]2c3cc4c(cc3[C@@H](c3cc(OC)c(O)c(OC)c3)[C@H]3C(=O)OC[C@@H]32)OCO4)cc1 |
| 4% | COc1cc([C@@H]2c3cc(O)c(O)cc3[C@@H](Nc3ccccc3)[C@H]3COC(=O)[C@H]23)cc(OC)c1O |
| 94% | COc1cc([C@@H]2c3cc4c(cc3[C@@H](OC(=O)c3ccccc3)[C@H]3COC(=O)[C@H]23)OCO4)cc(OC)c1O |
| 175% | COC(=O)c1ccc(NC2c3cc4c(cc3[C@@H](c3cc(O)c(O)c(OC)c3)[C@H]3C(=O)OC[C@H]23)OCO4)cc1 (stereo partly specified) |
| 230% | COc1cc([C@@H]2c3cc4c(cc3[C@@H](Nc3cccc([N+](=O)[O-])c3)[C@H]3COC(=O)[C@H]23)OCO4)cc(OC)c1O |
| 143% | COc1cc([C@@H]2c3cc4c(cc3[C@@H](NC(=O)NCCCl)[C@H]3COC(=O)[C@H]23)OCO4)cc(OC)c1O |
| 159% | COc1cc([C@@H]2c3cc4c(cc3[C@@H](NCc3cccc(Cl)c3)[C@H]3COC(=O)[C@H]23)OCO4)cc(OC)c1O |
| 167% | COc1cc([C@@H]2c3cc4c(cc3[C@@H](NC[C@H](C)O)[C@H]3COC(=O)[C@H]23)OCO4)cc(OC)c1O |
| 4% | COc1cc([C@@H]2c3cc(O)c(O)cc3[C@@H](Nc3cccc(O)c3)[C@H]3COC(=O)[C@H]23)cc(OC)c1OC |
| 144% | COc1cc([C@@H]2c3cc4c(cc3[C@@H](NCc3ccccc3[N+](=O)[O-])[C@H]3COC(=O)[C@H]23)OCO4)cc(OC)c1O |
| 109% | COc1cc([C@@H]2c3cc4c(cc3C(Nc3ccc(CC#N)cc3)[C@H]3COC(=O)[C@H]23)OCO4)cc(O)c1O (stereo partly specified) |

| Compound | Complex formation |
| --- | --- |
| COc1cc([C@@H]2c3cc4c(cc3[C@@H](NCc3ccc(F)cc3)[C@H]3COC(=O)[C@H]23)OCO4)cc(OC)c1O | 169% |
| COc1cc([C@@H]2c3cc4c(cc3[C@@H](Nc3ccccc3)[C@H]3COC(=O)[C@H]23)OCO4)cc(OC)c1O | 243% |
| COc1cc([C@@H]2c3cc4c(cc3[C@@H](Nc3ccc(Cl)cc3)[C@H]3COC(=O)[C@H]23)OCO4)cc(OC)c1O | 99% |
| COc1cc([C@@H]2c3cc4c(cc3[C@@H](Nc3ccc(F)cc3)[C@H]3COC(=O)[C@H]23)OCO4)cc(OC)c1O | 213% |
| COc1cc([C@@H]2c3cc4c(cc3[C@@H](NC(=O)c3ccc(C(C)=O)cc3)[C@H]3COC(=O)[C@H]23)OCO4)cc(OC)c1O | 124% |
| COc1cc([C@@H]2c3cc4c(cc3[C@@H](NC(=O)c3cccc(C#N)c3)[C@H]3COC(=O)[C@H]23)OCO4)cc(OC)c1O | 149% |
| COc1cc([N+](=O)[O-])ccc1N[C@@H]1c2cc3c(cc2[C@@H](c2cc(OC)c(O)c(OC)c2)[C@H]2C(=O)OC[C@@H]21)OCO3 | 83% |
| COc1cc([C@@H]2c3cc(O)c(O)cc3[C@@H](Nc3ccc([N+](=O)[O-])cc3)[C@H]3COC(=O)[C@H]23)cc(OC)c1O | 99% |
| COc1cc([C@@H]2c3cc4c(cc3[C@@H](Nc3cc([N+](=O)[O-])cc([N+](=O)[O-])c3)[C@H]3COC(=O)[C@H]23)OCO4)cc(OC)c1O | 20% |
| COc1cc([C@@H]2c3cc4c(cc3[C@@H](NC(=O)c3ccc(F)cc3)[C@H]3COC(=O)[C@H]23)OCO4)cc(OC)c1O | 117% |
| COc1cc([C@@H]2c3cc4c(cc3[C@@H](Nc3cccc(F)c3)[C@H]3COC(=O)[C@H]23)OCO4)cc(OC)c1O | 158% |
| COc1cc([C@@H]2c3cc4c(cc3[C@@H](NC(=O)c3ccc(OC(C)=O)cc3)[C@H]3COC(=O)[C@H]23)OCO4)cc(OC)c1O | 137% |
| COc1cc([C@@H]2c3cc4c(cc3[C@@H](NCc3ccccc3F)[C@H]3COC(=O)[C@H]23)OCO4)cc(OC)c1O | 126% |
| COc1cc([C@@H]2c3cc4c(cc3[C@@H](NC(=O)c3cccc([N+](=O)[O-])c3)[C@H]3COC(=O)[C@H]23)OCO4)cc(OC)c1O | 86% |
| COc1cc([C@@H]2c3cc4c(cc3[C@@H](NC(=O)c3ccc(C#N)cc3)[C@H]3COC(=O)[C@H]23)OCO4)cc(OC)c1O | 159% |
| COc1cc([C@@H]2c3cc4c(cc3[C@@H](Nc3cccc(Br)c3)[C@H]3COC(=O)[C@H]23)OCO4)cc(OC)c1O | 62% |
| COc1cc([C@@H]2c3cc4c(cc3[C@@H](Nc3ccccc3Cl)[C@H]3COC(=O)[C@H]23)OCO4)cc(OC)c1O | 32% |
| COc1cc([C@@H]2c3cc4c(cc3[C@@H](Nc3nc5ccccc5[nH]3)[C@H]3COC(=O)[C@H]23)OCO4)cc(OC)c1O | 58% |
| COc1cc([C@@H]2c3cc4c(cc3[C@@H](Nc3cc(F)cc(F)c3)[C@H]3COC(=O)[C@H]23)OCO4)cc(OC)c1O | 115% |
| COc1cc([C@@H]2c3cc4c(cc3[C@@H](NCc3cccc(F)c3)[C@H]3COC(=O)[C@H]23)OCO4)cc(OC)c1O | 216% |
